The test has as its system hippocampal CA1 region nerve cells. The experiment in a line: Number of nerve cells in hippocampal CA1 region, rat 4-VO model (Nissl staining). The format is in vivo. To be noted: for number of hippocampal CA1 pyramidal nerve cells relative to the group given the medium (Test Group 3): rat 4-VO Test 1, day 42, s.c. twice daily, present drug 10, ornoprostil 0.1, PGE1•αCD 1.5 and 3 mg/kg.

Turning to `CCCC[C@H](C)C[C@H](O)/C=C/[C@H]1[C@H](O)CC(=O)[C@@H]1CC(=O)CCCCC(=O)OC` [ornoprostil, reference compound], the “number of hippocampal CA1 pyramidal nerve cells relative to the group given the medium (Test Group 3)” value is “significant increase”.
As to `CCCCC[C@H](O)/C=C/[C@H]1[C@H](O)CC(=O)[C@@H]1CCCCCCC(=O)O` [PGE1•αCD, prostaglandin E1, reference compound], the “number of hippocampal CA1 pyramidal nerve cells relative to the group given the medium (Test Group 3)” value was “significant increase”. In addition, the “Number of nerve cells per unit length (count/mm) Left (L)” value (rat 4-VO Test 1, Test Group 6: 1.5 mg/kg (as PGE1) s.c. twice daily 42 days) stood at 105.7 ± 24.0 count/mm.

(Values after patent US8617614B2, “Sustained release preparation for tissue regeneration therapy” (Ono Pharmaceutical Co., Ltd., priority 2006, dated 2013).)
